Laboratory results taken from paper PMC12111156, “Nitazoxanide Analogs: Synthesis, In Vitro Giardicidal Activity, and Effects on Giardia lamblia Metabolic Gene Expression” (International Journal of Molecular Sciences, 2025).

Tests used:
[1] = tested on: G6PD::6PGL enzyme of G. lamblia; conditions: cited from earlier work
[2] = tested on: Giardia lamblia trophozoites (strain ATCC 30957) gene expression; assay: Gene expression in trophozoites by RT-qPCR; format: cell-based; conditions: IC50 of each compound, 48 h
Procedure: To determine the alterations in the parasite’s metabolism and cellular processes induced by the compounds, the expression levels of various genes encoding metabolic, structural, and oxidative stress response proteins were evaluated. G. lamblia strain ATCC 30957 was grown by following previously established culture parameters.
The culture tube was incubated on ice for 15 min and then centrifuged at 2000 rpm for 6 min to concentrate the cell pellet. Cell counting was performed using the trypan blue method. A 500 µL volume of Trizol ® was added, and it was gently homogenized; then, 60 µL of chloroform was added, and it was homogenized for 10 s with a vortex and incubated on ice for 3 min. Afterward, it was centrifuged at 12,000 rpm for 10 min, the aqueous phase was transferred to a new tube, 200 µL of isopropanol was added, and it was incubated for 3 h on ice. The sample was then centrifuged for 10 min at 12,000 rpm, and the supernatant was discarded. A 600 µL volume of ethanol (70%) was added, homogenized, and centrifuged. In the end, the supernatant was removed, and the sample was centrifuged again to dry the excess alcohol. The pellet was dried. Finally, it was resuspended in 25 µL of sterile MilliQ water. The concentration and purity of the extracted RNA were determined using the NanoDrop® Spectrophotometer ND-1000 (NanoDrop Technologies, Wilmington, DE, USA). […] RNA purity and integrity were confirmed using 0.8% (w/v) agarose gels under denaturing conditions.
The synthesis of cDNA was carried out with […] of purified RNA, and 1 U of […] was added (Thermo Thermo Fisher Scientific, Waltham, MA, USA). First-strand cDNA synthesis was carried out using 1 μg of DNase-treated RNA, combined with a 10 mM dNTP mix, oligo(dT)18 primer, and RevertAid reverse transcriptase (Thermo Scientific) in a final reaction volume of 20 μL. The reaction mixture was incubated at 42 °C for 60 min, followed by heat inactivation at 70 °C for 10 min. The synthesized cDNA was stored at −20 °C until further use. The level of purity and concentration of the cDNA were determined using the NanoDrop® Spectrophotometer ND-1000 (NanoDrop Technologies, Wilmington, DE, USA).
Specific oligonucleotides were designed to determine the expression levels of the gene’s phosphofructokinase, pyruvate kinase, glucose-6-phosphate dehydrogenase::6-phosphogluconolactonase, 6-phosphogluconate dehydrogenase, and transketolase. The design was based on gene sequences available in the National Center for Biotechnology Information (NCBI) database, adhering to the following criteria: an oligonucleotide length of 18–20 bp, a melting temperature (Tm) of 61 °C, a GC content of approximately 40%, and an amplicon size between 80 and 200 bp (Table 4). The oligonucleotides were synthesized by the Sequencing and Synthesis Unit of the Institute of Biotechnology, UNAM.
Additionally, previously reported primers that were used for the gene expression analysis of G. lamblia were also obtained (Table 4). These primers target genes encoding surface structural protein, giardin, actin, pyruvate:ferredoxin oxidoreductase, pyruvate phosphate dikinase, NADH oxidase, triose phosphate isomerase, glyceraldehyde-3-phosphate dehydrogenase, and Aldolase.
Amplification was performed using a StepOne™ Real-Time PCR System and the Fast SYBR® Green Master Mix kit (Applied Biosystems, Foster City, CA, USA) under the following conditions: an initial denaturation at 95 °C for 30 s, followed by 40 cycles of 95 °C for 3 s and 60 °C for 30 s. The melt curve analysis was conducted post-amplification by gradually increasing the temperature from 60 °C to 95 °C. […] Normalization was performed using the geometric mean of cycle threshold (Ct) values, and the relative expression levels of the target genes were calculated using the 2^−ΔΔCt method. Each reaction was performed in five replicates for all analyzed genes and strains. Results are presented as mean values ± standard deviation (SD).

[3] = tested on: G. lamblia strain resistant to nitazoxanide; assay: Giardicidal activity in nitazoxanide-resistant strain (trypan blue count); format: cell-based; conditions: Giardia duodenalis, 48 h, read-out: IC50 G. lamblia (NTZ Resistant)
Procedure: A pre-culture at confluence was used as a starting point, and a concentration–response curve was plotted using an initial compound concentration of 25 μM in a final volume of 1.5 mL of TYI-S-33 medium, followed by serial dilutions of the compound. Each treatment was inoculated with 1.5 × 10^5 trophozoites and incubated for 48 h at 37 °C. At the end of the incubation, the number of trophozoites was determined using the trypan blue assay and by counting in a Neubauer chamber. The viability percentage at each compound concentration was calculated using the negative control as a reference.

[4] = Cytotoxicity, XTT viability assay, Caco-2; conditions: human
Procedure: The cytotoxicity assay was performed to evaluate the effect of the selected compounds on human cells. Colon cells were used because they are cell lines like those present in the microenvironment where G. lamblia colonizes, which is the small intestine of the host. The assay was performed using the human cell lines Caco-2 (ATCC HTB-37) and HT-29 (ATCC […]). Cell viability was determined using the Cell Proliferation Kit II (XTT, St. Louis, MO, EE. UU.). A cell suspension of 2 × 10^3 cells/mL was prepared in Dulbecco’s modified Eagle’s medium (DMEM) supplemented with 10% inactivated fetal bovine serum and an antibiotic (1% penicillin/streptomycin, 5000 U/mL, in a volume of 100 µL). The suspension was added to a 96-well plate. The plates were incubated for 24 h at 37 °C in a 5% CO2 atmosphere. […] The cells were incubated for 48 h at 37 °C in a 5% CO2 atmosphere. Cell viability was determined using the following steps. The medium in each well was replaced with 100 µL of fresh medium, and 50 µL of XTT labeling mix was added per well. The reaction was incubated for four hours at 37 °C and 5% CO2. After incubation, the absorbance of the samples on the plate was measured at 450 nm. Each compound was assayed in triplicate in three independent experiments. CC50 values (μM) were determined using the nonlinear regression function of GraphPad Prism version 8 for Windows.

G. lamblia trophozoites = assay: Cell damage by transmission electron microscopy; format: cell-based, Giardia lamblia; conditions: IC50 concentration, 24 h
Procedure: The trophozoites were incubated for 24 h at 37 °C and then collected by cooling them in an ice bath for 10 min and centrifuging at 2000 rpm for 7 min. The samples were sent for preparation and observation at the Instituto de Fisiología Celular, UNAM. The analysis was performed using a JEOL-JEM-1200 transmission electron microscope (JEOL LTD, Tokyo, Japan) equipped with a GATAN CCD camera at the Imaging Unit of the Institute of Cellular Physiology, UNAM.

CCCCC(=O)Nc1ncc([N+](=O)[O-])s1 [FLP-2, N-(5-Nitro-1,3-thiazol-2-yl)pentanamide]
Inhibition of the G6PD::6PGL enzyme (in words) [1]: inhibitors of the G6PD enzyme
6PGDH gene expression vs control [2]: differential overexpression
ACT (actin) gene expression, decrease vs control [2]: 10 times
G6PD::6PGL gene expression vs control [2]: 117.4 fold change
GAPDH gene expression vs control [2]: 18.3 fold change
GIA (giardin) gene expression, increase vs control [2]: 20.1 times
NADHox gene expression, increase vs control [2]: lower
PFK gene expression vs control [2]: reduction
PFOR gene expression vs control [2]: 16 fold change
PPDK gene expression vs control [2]: 21.8 fold change
TKT gene expression, increase vs control [2]: 45.1 times
VSP gene expression, increase vs control [2]: 47.8 times
IC50 [3]: 0.37 µM
selectivity ratio at 48 h ([4]; Caco-2): 884
CC50 at 48 h ([4]; Caco-2, CC50 Caco-2, 48 h, XTT): 3180 µM
Ultrastructural effect on trophozoites (TEM) (G. lamblia trophozoites): significant morphological alterations
